Laboratory results published in paper PMC10507085, “Pharmacological inhibition of TBK1/IKKε blunts immunopathology in a murine model of SARS-CoV-2 infection” (Nature Communications, 2023).

Experiments:
Assay in all cases: biochemical
Settings in all cases: read-out: Percent Control
PFPK5(P.falciparum) = target: T1, PFPK5(P.falciparum) (Plasmodium falciparum, UniProt P61075); parameters: KINOMEscan competition binding, DNA-tagged kinase against immobilised ligand, qPCR read-out
T1 construct: gene CRK2
T1 sequence (P61075 whole entry): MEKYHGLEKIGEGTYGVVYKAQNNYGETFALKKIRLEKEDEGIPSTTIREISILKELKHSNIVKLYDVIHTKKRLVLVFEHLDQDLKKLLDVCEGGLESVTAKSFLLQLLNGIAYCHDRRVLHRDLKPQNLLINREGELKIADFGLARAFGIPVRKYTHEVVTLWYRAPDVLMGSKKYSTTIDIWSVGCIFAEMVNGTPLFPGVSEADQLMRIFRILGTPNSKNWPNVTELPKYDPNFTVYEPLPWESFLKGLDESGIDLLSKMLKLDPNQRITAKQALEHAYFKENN

ABL2 = ABL2 (Homo sapiens, UniProt P42684); parameters: KINOMEscan competition binding, DNA-tagged kinase against immobilised ligand, qPCR read-out
CDK13 = CDK13 (Homo sapiens, UniProt Q14004); parameters: KINOMEscan competition binding, DNA-tagged kinase against immobilised ligand, qPCR read-out
CDKL1 = CDKL1 (Homo sapiens, UniProt Q00532); parameters: KINOMEscan competition binding, DNA-tagged kinase against immobilised ligand, qPCR read-out
Sequence of CDKL1 (Q00532 whole entry): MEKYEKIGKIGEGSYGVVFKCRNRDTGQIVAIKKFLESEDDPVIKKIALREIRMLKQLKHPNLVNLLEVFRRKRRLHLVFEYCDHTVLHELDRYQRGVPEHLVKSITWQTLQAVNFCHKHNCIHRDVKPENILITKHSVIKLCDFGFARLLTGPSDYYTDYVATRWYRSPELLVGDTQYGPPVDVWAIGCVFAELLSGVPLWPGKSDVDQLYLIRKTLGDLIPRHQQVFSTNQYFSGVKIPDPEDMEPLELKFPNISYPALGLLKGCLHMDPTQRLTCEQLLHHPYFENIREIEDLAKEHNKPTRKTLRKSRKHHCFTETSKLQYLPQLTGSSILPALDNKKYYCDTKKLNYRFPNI

DAPK3 = DAPK3 (Homo sapiens, UniProt O43293); parameters: KINOMEscan competition binding, DNA-tagged kinase against immobilised ligand, qPCR read-out
Sequence of DAPK3 (O43293 whole entry): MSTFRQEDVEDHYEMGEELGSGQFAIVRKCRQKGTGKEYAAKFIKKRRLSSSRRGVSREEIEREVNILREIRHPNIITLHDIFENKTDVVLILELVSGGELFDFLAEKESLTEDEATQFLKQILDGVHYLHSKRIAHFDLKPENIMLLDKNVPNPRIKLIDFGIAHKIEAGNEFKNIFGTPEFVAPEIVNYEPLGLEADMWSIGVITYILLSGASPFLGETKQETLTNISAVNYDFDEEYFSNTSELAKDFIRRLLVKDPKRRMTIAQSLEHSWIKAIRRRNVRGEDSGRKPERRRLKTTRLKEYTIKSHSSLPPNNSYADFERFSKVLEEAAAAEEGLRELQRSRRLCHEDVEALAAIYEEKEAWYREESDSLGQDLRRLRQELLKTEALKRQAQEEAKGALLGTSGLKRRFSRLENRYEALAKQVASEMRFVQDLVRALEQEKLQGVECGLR

DCLK2 = DCLK2 (Homo sapiens, UniProt Q8N568); parameters: KINOMEscan competition binding, DNA-tagged kinase against immobilised ligand, qPCR read-out
EPHA2 = EPHA2 (Homo sapiens, UniProt P29317); parameters: KINOMEscan competition binding, DNA-tagged kinase against immobilised ligand, qPCR read-out
Sequence of EPHA2 (P29317 whole entry): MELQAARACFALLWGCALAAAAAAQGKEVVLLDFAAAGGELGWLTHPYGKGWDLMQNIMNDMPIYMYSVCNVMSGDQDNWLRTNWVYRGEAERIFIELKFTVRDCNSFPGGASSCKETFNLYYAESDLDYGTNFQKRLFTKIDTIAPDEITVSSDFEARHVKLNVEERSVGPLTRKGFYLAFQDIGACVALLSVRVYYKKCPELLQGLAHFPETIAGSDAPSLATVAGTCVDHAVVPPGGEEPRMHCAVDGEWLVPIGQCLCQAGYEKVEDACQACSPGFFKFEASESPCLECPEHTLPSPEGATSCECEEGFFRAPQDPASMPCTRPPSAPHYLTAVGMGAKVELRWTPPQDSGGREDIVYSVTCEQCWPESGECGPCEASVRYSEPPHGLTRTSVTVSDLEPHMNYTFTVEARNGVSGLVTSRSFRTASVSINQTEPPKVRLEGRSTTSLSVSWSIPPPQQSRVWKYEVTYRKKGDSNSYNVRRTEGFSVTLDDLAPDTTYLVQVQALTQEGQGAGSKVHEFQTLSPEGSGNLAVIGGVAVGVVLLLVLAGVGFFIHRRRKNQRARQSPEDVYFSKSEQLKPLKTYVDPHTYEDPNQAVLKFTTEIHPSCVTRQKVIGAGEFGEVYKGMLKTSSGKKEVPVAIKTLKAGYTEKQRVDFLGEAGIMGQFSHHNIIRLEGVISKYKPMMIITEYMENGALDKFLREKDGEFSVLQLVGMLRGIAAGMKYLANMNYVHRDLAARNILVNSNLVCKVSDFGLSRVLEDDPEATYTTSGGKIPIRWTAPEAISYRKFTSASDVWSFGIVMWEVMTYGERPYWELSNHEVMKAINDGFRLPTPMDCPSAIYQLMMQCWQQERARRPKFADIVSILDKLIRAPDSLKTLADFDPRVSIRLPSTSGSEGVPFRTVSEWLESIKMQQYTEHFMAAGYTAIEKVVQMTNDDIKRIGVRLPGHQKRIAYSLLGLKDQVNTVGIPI

PFCDPK1(P.falciparum) = target: T2, PFCDPK1(P.falciparum) (Plasmodium falciparum, UniProt P62344); parameters: KINOMEscan competition binding, DNA-tagged kinase against immobilised ligand, qPCR read-out
T2 construct: gene CDPK1

PIM1 = PIM1 (Homo sapiens, UniProt P11309); parameters: KINOMEscan competition binding, DNA-tagged kinase against immobilised ligand, qPCR read-out
Sequence of PIM1 (P11309 whole entry): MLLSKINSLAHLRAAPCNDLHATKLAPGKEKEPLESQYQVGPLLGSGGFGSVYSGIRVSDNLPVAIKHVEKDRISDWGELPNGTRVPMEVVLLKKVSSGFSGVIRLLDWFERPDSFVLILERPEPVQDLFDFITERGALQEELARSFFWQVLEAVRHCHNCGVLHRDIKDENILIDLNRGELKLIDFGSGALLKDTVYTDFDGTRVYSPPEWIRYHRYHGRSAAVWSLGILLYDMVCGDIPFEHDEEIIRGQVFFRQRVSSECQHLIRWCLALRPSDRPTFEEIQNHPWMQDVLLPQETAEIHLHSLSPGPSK

ROCK1 = ROCK1 (Homo sapiens, UniProt Q13464); parameters: KINOMEscan competition binding, DNA-tagged kinase against immobilised ligand, qPCR read-out
STK38 = STK38 (Homo sapiens, UniProt Q15208); parameters: KINOMEscan competition binding, DNA-tagged kinase against immobilised ligand, qPCR read-out
Sequence of STK38 (Q15208 whole entry): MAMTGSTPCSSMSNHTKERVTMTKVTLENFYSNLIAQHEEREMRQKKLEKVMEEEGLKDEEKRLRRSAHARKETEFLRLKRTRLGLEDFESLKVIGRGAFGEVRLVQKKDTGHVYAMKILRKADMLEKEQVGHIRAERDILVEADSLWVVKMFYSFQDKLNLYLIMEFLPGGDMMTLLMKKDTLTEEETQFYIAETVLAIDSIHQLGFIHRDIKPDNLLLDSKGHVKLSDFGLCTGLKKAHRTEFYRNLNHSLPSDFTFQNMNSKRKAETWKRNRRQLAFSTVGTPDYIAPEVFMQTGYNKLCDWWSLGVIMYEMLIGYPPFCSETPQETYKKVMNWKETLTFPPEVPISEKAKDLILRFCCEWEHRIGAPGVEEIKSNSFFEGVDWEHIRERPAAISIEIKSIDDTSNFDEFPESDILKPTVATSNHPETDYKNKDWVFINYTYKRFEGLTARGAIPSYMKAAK

TESK1 = TESK1 (Homo sapiens, UniProt Q15569); parameters: KINOMEscan competition binding, DNA-tagged kinase against immobilised ligand, qPCR read-out
Sequence of TESK1 (Q15569 whole entry): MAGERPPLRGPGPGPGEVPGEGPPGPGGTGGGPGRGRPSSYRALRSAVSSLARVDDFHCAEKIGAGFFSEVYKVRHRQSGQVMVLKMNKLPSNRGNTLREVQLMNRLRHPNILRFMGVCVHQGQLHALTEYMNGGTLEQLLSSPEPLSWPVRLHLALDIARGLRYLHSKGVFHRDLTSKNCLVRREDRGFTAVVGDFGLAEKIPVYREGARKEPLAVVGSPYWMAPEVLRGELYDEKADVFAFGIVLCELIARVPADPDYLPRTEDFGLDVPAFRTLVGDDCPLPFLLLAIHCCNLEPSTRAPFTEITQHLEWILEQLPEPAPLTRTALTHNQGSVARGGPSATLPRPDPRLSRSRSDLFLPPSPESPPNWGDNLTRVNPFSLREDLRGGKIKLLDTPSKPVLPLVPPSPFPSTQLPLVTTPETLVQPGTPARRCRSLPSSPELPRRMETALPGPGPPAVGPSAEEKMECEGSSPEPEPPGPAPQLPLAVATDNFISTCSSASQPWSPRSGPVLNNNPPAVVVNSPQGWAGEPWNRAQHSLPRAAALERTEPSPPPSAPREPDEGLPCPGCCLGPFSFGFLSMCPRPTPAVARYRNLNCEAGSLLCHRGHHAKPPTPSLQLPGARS

DYRK1B = DYRK1B (Homo sapiens, UniProt Q9Y463)
Sequence of DYRK1B (Q9Y463 whole entry): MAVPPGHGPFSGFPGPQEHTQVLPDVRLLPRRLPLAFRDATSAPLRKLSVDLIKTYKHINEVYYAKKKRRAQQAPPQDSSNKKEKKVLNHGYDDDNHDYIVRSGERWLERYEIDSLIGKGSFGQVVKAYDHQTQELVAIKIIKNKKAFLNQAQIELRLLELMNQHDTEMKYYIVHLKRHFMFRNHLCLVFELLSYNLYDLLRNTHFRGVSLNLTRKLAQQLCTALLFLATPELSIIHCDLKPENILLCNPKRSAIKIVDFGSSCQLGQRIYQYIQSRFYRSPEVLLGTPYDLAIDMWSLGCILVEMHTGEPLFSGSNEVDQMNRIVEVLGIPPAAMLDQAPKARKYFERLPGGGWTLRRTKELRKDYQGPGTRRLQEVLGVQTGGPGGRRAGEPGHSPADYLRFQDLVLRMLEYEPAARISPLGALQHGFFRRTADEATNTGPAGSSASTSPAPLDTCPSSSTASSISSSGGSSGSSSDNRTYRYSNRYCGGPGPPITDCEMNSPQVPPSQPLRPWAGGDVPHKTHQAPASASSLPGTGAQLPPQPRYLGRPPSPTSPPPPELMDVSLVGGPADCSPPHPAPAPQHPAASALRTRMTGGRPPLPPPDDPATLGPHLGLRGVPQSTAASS

LTK = LTK (Homo sapiens, UniProt P29376)
Sequence of LTK (P29376 whole entry): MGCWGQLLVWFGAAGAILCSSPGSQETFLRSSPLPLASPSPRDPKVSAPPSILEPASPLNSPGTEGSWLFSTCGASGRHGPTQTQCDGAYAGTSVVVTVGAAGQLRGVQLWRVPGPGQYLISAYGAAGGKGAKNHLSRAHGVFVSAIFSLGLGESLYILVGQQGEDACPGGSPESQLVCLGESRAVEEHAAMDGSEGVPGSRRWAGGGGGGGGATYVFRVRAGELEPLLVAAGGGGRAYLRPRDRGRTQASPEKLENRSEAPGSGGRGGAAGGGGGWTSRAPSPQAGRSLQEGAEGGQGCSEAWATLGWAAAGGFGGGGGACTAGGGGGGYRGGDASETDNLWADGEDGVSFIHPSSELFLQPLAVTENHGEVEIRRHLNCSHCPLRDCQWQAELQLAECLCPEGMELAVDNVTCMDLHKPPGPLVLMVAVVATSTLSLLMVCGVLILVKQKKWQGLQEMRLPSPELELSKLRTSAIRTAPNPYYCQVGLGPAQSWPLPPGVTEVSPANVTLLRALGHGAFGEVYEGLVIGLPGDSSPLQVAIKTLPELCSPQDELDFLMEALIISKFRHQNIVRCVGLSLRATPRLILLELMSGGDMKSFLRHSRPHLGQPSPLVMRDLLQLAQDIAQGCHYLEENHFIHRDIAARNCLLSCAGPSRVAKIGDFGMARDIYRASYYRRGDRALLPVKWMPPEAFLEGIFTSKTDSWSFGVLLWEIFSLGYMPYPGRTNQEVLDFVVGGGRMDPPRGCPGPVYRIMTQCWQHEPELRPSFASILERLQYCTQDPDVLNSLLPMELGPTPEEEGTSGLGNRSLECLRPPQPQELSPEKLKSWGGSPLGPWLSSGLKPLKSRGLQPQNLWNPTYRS

Oc1ccc(C2=Cc3ccc(O)cc3OC2)cc1 [compound 1, idronoxil]
remaining binding at 10 µM (PFPK5(P.falciparum)): 95% | remaining binding at 10 µM (ABL2): 79% | remaining binding at 10 µM (CDK13): 100% | remaining binding at 10 µM (CDKL1): 77% | remaining binding at 10 µM (DAPK3): 49% | remaining binding at 10 µM (DCLK2): 73% | remaining binding at 10 µM (EPHA2): 78% | remaining binding at 10 µM (PFCDPK1(P.falciparum)): 80% | remaining binding at 10 µM (PIM1): 34% | remaining binding at 10 µM (ROCK1): 85% | remaining binding at 10 µM (STK38): 68% | remaining binding at 10 µM (TESK1): 86% | remaining activity at 10 µM (DYRK1B): 27% | remaining activity at 10 µM (LTK): 95%
